21 compounds from patent US9365522B2, “Pyrazole amide derivative” (AMGEN INC., priority 2015, dated 2016) can be followed below.

The experiment addresses T1, ligand binding domain of human ROR gamma (Homo sapiens, UniProt P51449).
T1 construct: NM_001001523; expressed in transfected cells; host or cells: HEK293T
T1 sequence (P51449 247-497 isoform P51449-2): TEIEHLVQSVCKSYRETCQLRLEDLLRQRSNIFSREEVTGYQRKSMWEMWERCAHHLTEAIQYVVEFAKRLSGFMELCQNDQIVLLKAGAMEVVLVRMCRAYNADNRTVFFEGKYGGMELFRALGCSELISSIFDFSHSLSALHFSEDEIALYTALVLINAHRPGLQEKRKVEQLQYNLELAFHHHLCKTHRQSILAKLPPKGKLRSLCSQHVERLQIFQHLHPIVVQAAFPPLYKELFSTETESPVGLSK
In words: ROR gamma reporter gene assay (GAL4-RORγ LBD luciferase, Dual-Glo). The class given is cell-based. As to conditions: HEK293T cells transfected with pM-ROR gamma, 8 concentrations 3.5 nM to 10.5 μM, 24 h incubation; for IC50: read-out: result (pIC50, inhibition of RORγ transcriptional activity) (converted). In outline: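 HEK293T cells co-transfected with GAL4-DBD fused to human RORγ LBD (aa 247-497), 5×UAS firefly luciferase reporter and CMV-renilla, in charcoal-stripped serum.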

A value given as a limit tells only on which side of the number the result lay.

For `CC12CCC(CN(CC(=O)c3c(Cl)cc(Cl)cc3Cl)C(=O)c3cnn([C@H]4CC[C@](C)(C(=O)O)CC4)c3C(F)(F)F)(CC1)C2` [Example 275, trans-4-(4-((1-methyl-4-bicyclo[2.2.1]heptanyl)methyl-(2-oxo-2-(2,4,6-trichlorophenyl)ethyl)carbamoyl)-5-(trifluoromethyl)pyrazol-1-yl)-1-methylcyclohexane-1-carboxylic acid], the IC50 was < 3470 pM.

In the case of `CC(C)(C)CN(CC(=O)c1c(Cl)cncc1Cl)C(=O)c1cnn(C2CCC(C)(C(=O)O)CC2)c1Cl` (stereo not drawn) [Example 276, trans-4-(5-chloro-4-((2-(3,5-dichloropyridin-4-yl)-2-oxoethyl)-(2,2-dimethylpropyl)carbamoyl)pyrazol-1-yl)-1-methylcyclohexane-1-carboxylic acid], the “result (pIC50, inhibition of RORγ transcriptional activity)” value is 6.91. As to `Cc1cc(Cl)c(C(=O)CN(C(=O)c2cnn([C@H]3CC[C@](C)(C(=O)O)CC3)c2C(F)(F)F)[C@H]2C[C@@H]3[C@H](C2)C3(C)C)c(Cl)c1` [Example 277, trans-4-(4-((2-(2,6-dichloro-4-methylphenyl)-2-oxoethyl)((1R,3r,5S)-6,6-dimethylbicyclo[3.1.0]hexan-3-yl)carbamoyl)-5-(trifluoromethyl)-1H-pyrazol-1-yl)-1-methylcyclohexanecarboxylic acid], the IC50 is 7240 pM. The same measure, in the same setting: in the case of `CC1(C)[C@@H]2C[C@H](N(CC(=O)c3c(Cl)cccc3Cl)C(=O)c3cnn([C@H]4CC[C@](C)(C(=O)O)CC4)c3C(F)(F)F)C[C@@H]21` [Example 278, trans-4-(4-((2-(2,6-dichlorophenyl)-2-oxoethyl)((1R,3r,5S)-6,6-dimethylbicyclo[3.1.0]hexan-3-yl)carbamoyl)-5-(trifluoromethyl)-1H-pyrazol-1-yl)-1-methylcyclohexanecarboxylic acid] it was 11700 pM. Consider `Cc1cc(C)c(C(=O)CN(C(=O)c2cnn([C@H]3CC[C@](C)(C(=O)O)CC3)c2C(F)(F)F)C2CCC(C)(C)CC2)c(Cl)c1` [Example 279, trans-4-(4-((2-(2-chloro-4,6-dimethylphenyl)-2-oxoethyl)-(4,4-dimethylcyclohexyl)carbamoyl)-5-(trifluoromethyl)pyrazol-1-yl)-1-methylcyclohexane-1-carboxylic acid], for which the IC50 was 38000 pM. As to `Cc1cc(Cl)cc(C)c1C(=O)CN(C(=O)c1cnn([C@H]2CC[C@](C)(C(=O)O)CC2)c1C(F)(F)F)C1CCC(C)(C)CC1` [Example 280, trans-4-(4-((2-(4-chloro-2,6-dimethylphenyl)-2-oxoethyl)-(4,4-dimethylcyclohexyl)carbamoyl)-5-(trifluoromethyl)pyrazol-1-yl)-1-methylcyclohexane-1-carboxylic acid], the IC50 is 245000 pM. Same read-out and setting: under `C[C@]1(C(=O)O)CC[C@H](n2ncc(C(=O)N(CC(=O)c3c(Cl)cccc3Cl)CC3(F)CCCC3)c2C(F)(F)F)CC1` [Example 281, trans-4-(4-((2-(2,6-dichlorophenyl)-2-oxoethyl)-((1-fluorocyclopentyl)methyl)carbamoyl)-5-(trifluoromethyl)pyrazol-1-yl)-1-methylcyclohexane-1-carboxylic acid] stands 4270 pM.

As to `Cc1cc(Cl)c(C(=O)CN(CC2(F)CCCC2)C(=O)c2cnn([C@H]3CC[C@](C)(C(=O)O)CC3)c2C(F)(F)F)c(Cl)c1` [Example 282, trans-4-(4-((2-(2,6-dichloro-4-methylphenyl)-2-oxoethyl)-((1-fluorocyclopentyl)methyl)carbamoyl)-5-(trifluoromethyl)pyrazol-1-yl)-1-methylcyclohexane-1-carboxylic acid], the IC50 is 3390 pM. Same read-out and setting: under `CC1(C)CCC(N(CC(=O)c2c(Cl)cccc2Cl)C(=O)c2cnn([C@H]3CC[C@](C)(C(=O)O)CC3)c2C(F)(F)F)CC1` [Example 283, trans-4-(4-((2-(2,6-dichlorophenyl)-2-oxoethyl)-(4,4-dimethylcyclohexyl)carbamoyl)-5-(trifluoromethyl)pyrazol-1-yl)-1-methylcyclohexane-1-carboxylic acid] stands 9120 pM; under `CC(C)(C)CN(CC(=O)c1c(Cl)cccc1Cl)C(=O)c1cnn([C@H]2CC[C@](C)(C(=O)O)CC2)c1C(F)(F)F` [Example 284, trans-4-(4-((2-(2,6-dichlorophenyl)-2-oxoethyl)-(2,2-dimethylpropyl)carbamoyl)-5-(trifluoromethyl)pyrazol-1-yl)-1-methylcyclohexane-1-carboxylic acid], 11200 pM.

As for `CCC(C)(C)CN(CC(=O)c1c(Cl)cncc1Cl)C(=O)c1cnn([C@H]2CC[C@](C)(C(=O)O)CC2)c1C(F)(F)F` [Example 286, trans-4-(4-((2-(3,5-dichioropyridin-4-yl)-2-oxoethyl)-(2,2-dimethylbutyl)carbamoyl)-5-(trifluoromethyl)pyrazol-1-yl)-1-methylcyclohexane-1-carboxylic acid], the IC50 is 9120 pM. On the same count and under the same terms, in the case of `CCC(CC)N(CC(=O)c1c(Cl)cncc1Cl)C(=O)c1cnn([C@H]2CC[C@](C)(C(=O)O)CC2)c1C(F)(F)F` [Example 287, trans-4-(4-((2-(3,5-dichloropyridin-4-yl)-2-oxoethyl)-pentan-3-ylcarbamoyl)-5-(trifluoromethyl)pyrazol-1-yl)-1-methylcyclohexane-1-carboxylic acid] it was 1.2e+06 pM; in that of `CCC(C)(C)CN(CC(=O)c1c(Cl)cncc1Cl)C(=O)c1cnn(C23CCC(C(=O)O)(CC2)CC3)c1C(F)(F)F` [Example 288, 4-(4-((2-(3,5-dichloropyridin-4-yl)-2-oxoethyl)-(2,2-dimethylbutyl)carbamoyl)-5-(trifluoromethyl)pyrazol-1-yl)bicyclo[2.2.2]octane-1-carboxylic acid], 11700 pM. On the same count and under the same terms, under `C[C@]1(C(=O)O)CC[C@H](n2ncc(C(=O)N(CC(=O)c3c(Cl)cc(Cl)cc3Cl)C3CCC4(CC3)COC4)c2C(F)(F)F)CC1` [Example 289, trans-1-methyl-4-(4-(2-oxaspiro[3.5]nonan-7-yl-(2-oxo-2-(2,4,6-trichlorophenyl)ethyl)carbamoyl)-5-(trifluoromethyl)pyrazol-1-yl)cyclohexane-1-carboxylic acid] stands 93300 pM; under `CC1(C)CCC(N(CC(=O)c2c(Cl)cc(F)cc2Cl)C(=O)c2cnn([C@H]3C[C@H](C(=O)O)C3)c2C(F)(F)F)CC1` [Example 290, trans-3-(4-((2-(2,6-dichloro-4-fluorophenyl)-2-oxoethyl)-(4,4-dimethylcyclohexyl)carbamoyl)-5-(trifluoromethyl)pyrazol-1-yl)cyclobutane-1-carboxylic acid], 191000 pM. Same read-out and setting: in the case of `CC1(C)CCC(N(CC(=O)c2c(Cl)cc(F)cc2Cl)C(=O)c2cnn([C@H]3C[C@@H](C(=O)O)C3)c2C(F)(F)F)CC1` [Example 291, cis-3-(4-((2-(2,6-dichloro-4-fluorophenyl)-2-oxoethyl)-(4,4-dimethylcyclohexyl)carbamoyl)-5-(trifluoromethyl)pyrazol-1-yl)cyclobutane-1-carboxylic acid] it was 1.02e+06 pM; in that of `CC(C)(C)OCCN(CC(=O)c1c(Cl)cc(F)cc1Cl)C(=O)c1cnn([C@H]2CC[C@](C)(C(=O)O)CC2)c1C(F)(F)F` [Example 292, trans-4-(4-((2-(2,6-dichloro-4-fluorophenyl)-2-oxoethyl)-(2-((2-methylpropan-2-yl)oxy)ethyl)carbamoyl)-5-(trifluoromethyl)pyrazol-1-yl)-1-methylcyclohexane-1-carboxylic acid], 47900 pM; in that of `CC(C)(C)OCCN(CC(=O)c1c(Cl)cc(Cl)cc1Cl)C(=O)c1cnn([C@H]2CC[C@](C)(C(=O)O)CC2)c1C(F)(F)F` [Example 293, trans-1-methyl-4-(4-(2-((2-methylpropan-2-yl)oxy)ethyl-(2-oxo-2-(2,4,6-trichlorophenyl)ethyl)carbamoyl)-5-(trifluoromethyl)pyrazol-1-yl)cyclohexane-1-carboxylic acid], 33100 pM.

Consider `CC(C)(C)CN(CC(=O)c1c(F)cncc1Cl)C(=O)c1cnn([C@H]2CC[C@](C)(C(=O)O)CC2)c1C(F)(F)F` [Example 294, trans-4-(4-((2-(3-chloro-5-fluoropyridin-4-yl)-2-oxoethyl)-(2,2-dimethylpropyl)carbamoyl)-5-(trifluoromethyl)pyrazol-1-yl)-1-methylcyclohexane-1-carboxylic acid], for which the IC50 is 49000 pM.

`CN1CCC(N(CC(=O)c2c(Cl)cc(F)cc2Cl)C(=O)c2cnn([C@H]3CC[C@](C)(C(=O)O)CC3)c2C(F)(F)F)CC1` [Example 295, trans-4-(4-((2-(2,6-dichloro-4-fluorophenyl)-2-oxoethyl)-(1-methylpiperidin-4-yl)carbamoyl)-5-(trifluoromethyl)pyrazol-1-yl)-1-methylcyclohexane-1-carboxylic acid]: the IC50 was 5.62e+06 pM. Still for that read-out and setting: in the case of `CC(C)N1CCC(N(CC(=O)c2c(Cl)cc(F)cc2Cl)C(=O)c2cnn([C@H]3CC[C@](C)(C(=O)O)CC3)c2C(F)(F)F)CC1` [Example 296, trans-4-(4-((2-(2,6-dichloro-4-fluorophenyl)-2-oxoethyl)-(1-propan-2-ylpiperidin-4-yl)carbamoyl)-5-(trifluoromethyl)pyrazol-1-yl)-1-methylcyclohexane-1-carboxylic acid] it was > 1.05e+07 pM.
